The source of these data is patent US10894772B2, “Flavor modulator having pyridine derivative or salt thereof as active ingredient” (T. HASEGAWA CO., LTD., priority 2015, dated 2021).

What all share (assay type): in vivo
The test system of experiment [1] is panelists. Nature of the experiment: Flavor evaluation of ethanol solution (bottle mouth and flavor paper). Conditions: 0.1% ethanol solution, average evaluation of 5 panelists. How it is done:
A […] ethanol solution of the invention products 1 to 6 prepared in Examples 1 to 6 was prepared as an evaluation solution. The evaluation solution was prepared in a sample bottle. Regarding the flavor of the sample smelling from the bottle mouth and the flavor of a flavor paper prepared by infiltrating the evaluation solution into a paper, well-trained 5 panelists tested the solution for flavor evaluation.
A 0.1% ethanol solution of the invention product 101 (2-(3-benzyloxypropyl)pyridine) prepared in Example 101 was prepared as an evaluation solution. The evaluation solution was prepared in a sample bottle. Regarding the flavor of the sample smelling from the bottle mouth and the flavor of a flavor paper prepared by infiltrating the evaluation solution into a paper, well-trained 5 panelists tested the solution for flavor evaluation. A typical evaluation of the product is as follows.

For experiment [2], the system named is panelists. Nature of the experiment: Confirmation of umami and saltiness enhancement in edible salt and MSG solution. As to conditions: 10 ppb added to aqueous 0.3 mass % edible salt and 0.03 mass % sodium glutamate (MSG); 5 panelists. The text has this: Well-trained 5 panelists tasted an aqueous solution of 0.3 mass % edible salt and 0.03 mass % sodium glutamate (MSG), and aqueous solutions prepared by adding to the aqueous solution, 10 ppb of any of the invention products 1 to 6, for organoleptic evaluation in point of umami and saltiness enhancement.
Well-trained 5 panelists tasted an aqueous solution of 0.3 mass % edible salt and 0.03 mass % sodium glutamate (MSG), and an aqueous solution prepared by adding to the aqueous solution, 10 ppb of 2-(3-benzyloxypropyl)pyridine (invention product 101), for organoleptic evaluation in point of umami and saltiness enhancement.
Well-trained 5 panelists tasted an aqueous solution of 0.3 mass % edible salt and 0.03 mass % sodium glutamate (MSG), and an aqueous solution prepared by adding to the aqueous solution, 10 ppb, as 2-(3-benzyloxypropyl)pyridine therein, of the invention product 201 or the reference product 202, for organoleptic evaluation in point of umami and saltiness enhancement.

Experiment [3] deals with panelists. Description: Confirmation of umami enhancing effect in sodium inosinate solution. As to conditions: 10 ppb added to aqueous 0.1 mass % sodium inosinate solution; 5 panelists. The text has this: Well-trained 5 panelists tasted an aqueous solution of 0.1 mass % sodium inosinate (5′-IMP⋅2Na), and aqueous solutions prepared by adding to the aqueous 0.1 mass % sodium inosinate solution, 10 ppb of any of the invention products 1 to 6, for organoleptic evaluation in point of umami.
Well-trained 5 panelists tasted an aqueous solution of 0.1 mass % sodium inosinate (5′-IMP⋅2Na), and an aqueous solution prepared by adding thereto 10 ppb of 2-(3-benzyloxypropyl)pyridine (invention product 101), for organoleptic evaluation in point of umami.
Well-trained 5 panelists tasted (1) 0.1 mass % sodium inosinate (5′-IMP⋅2Na) and (2) an aqueous solution of 0.1 mass % sodium inosinate and 5 ppb, as 2-(3-benzyloxypropyl)pyridine therein, of the invention product 201, for organoleptic evaluation in point of umami.

The subject of experiment [4] is panelists. Description: Confirmation of sweetness enhancing effect in sucrose solution. As to conditions: 5 ppb added to aqueous 3 mass % sucrose solution; 5 panelists. The text has this: Well-trained 5 panelists tasted an aqueous 3 mass % sucrose solution, and aqueous solutions prepared by adding to the aqueous 3 mass % sucrose solution, 5 ppb of any of the invention products 1 to 6, for organoleptic evaluation in point of sweetness.
Well-trained 5 panelists tasted an aqueous 3 mass % sucrose solution, and an aqueous solution prepared by adding thereto 5 ppb of 2-(3-benzyloxypropyl)pyridine (invention product 101), for organoleptic evaluation in point of sweetness.
Well-trained 5 panelists tasted (1) an aqueous 3 mass % sucrose solution and (2) an aqueous solution prepared by adding […], as 2-(3-benzyloxypropyl)pyridine therein, of the invention product 201 to the aqueous 3 mass % sucrose solution, for organoleptic evaluation in point of sweetness.

The subject of experiment [5] is panelists. Nature of the experiment: Addition to soup broth for udon noodle. As to conditions: 0.05 ppm added to commercial soup broth for udon noodle; 100 ml diluted with 200 ml hot water; 5 panelists. How it is done:
0.05 ppm of any of the invention products 1 to 6 was added to commercially-available soup broth for udon noodle (tripe strength). 200 ml of hot water was added to 100 ml of each of the added soup broth and the non-added soup broth, and well-trained 5 panelists tasted them for organoleptic evaluation in point of umami.
0.05 ppm of 2-(3-benzyloxypropyl)pyridine (invention product 101) was added to commercially-available soup broth for udon noodle (tripe strength). 200 ml of hot water was added to 100 ml of each of the added soup broth and the non-added soup broth, and well-trained 5 panelists tasted them for organoleptic evaluation in point of umami.
0.05 ppm as 2-(3-benzyloxypropyl)pyridine therein of the invention product 201 was added to commercially-available soup broth for udon noodle (tripe strength). 200 ml of hot water was added to 100 ml of each of the added soup broth and the non-added soup broth, and well-trained 5 panelists tasted them for organoleptic evaluation in point of umami.

The test system of experiment [6] is panelists. Nature of the experiment: Confirmation of umami in water (organoleptic evaluation of taste and flavor in words). Conditions: for Organoleptic Evaluation Taste / Organoleptic Evaluation Flavor: average of 5 panelists. How it is done:
A solution was prepared by dissolving 2-(3-benzyloxypropyl)pyridine (invention product 101) in water to have a concentration shown in Table 15. As a comparative product, a solution was prepared by dissolving 2-(2-benzyloxyethyl)pyridine (comparative product 1 prepared in Comparative Example 1) to have the same concentration. Well-trained 5 panelists tasted the solutions and non-added water for organoleptic evaluation of taste and flavor.
The invention product 101 and the comparative product 1 were individually diluted with ethanol to have a proper concentration, and then further diluted with water to prepare an aqueous solution of 2-(3-benzyloxypropyl)pyridine (invention product 101 produced in Example 101) and that of 2-(2-benzyloxyethyl)pyridine (comparative product synthesized in Comparative Example 1) each having a concentration shown in the following Table 21. Well-trained panelists tasted the solution having a different concentration and non-added water for organoleptic evaluation in point of taste and flavor. […]

In experiment [7] the test system is panelists. Nature of the experiment: Confirmation of umami imparting and saltiness enhancing effect in 0.3 mass % sodium chloride (evaluation in words). As to the method: An aqueous 0.3 mass % sodium chloride solution (control), and solutions of 2-(3-benzyloxypropyl)pyridine dissolved in a 0.3 mass % sodium chloride solution to have the concentration shown in Table 17 were prepared. As comparative products, an aqueous 0.3 mass % sodium chloride solution (control), and a solution of a comparative product, 2-(2-benzyloxyethyl)pyridine dissolved in a 0.3 mass % sodium chloride solution to have the same concentration were prepared. Well-trained 5 panelists tasted the solutions for organoleptic evaluation of umami impartment and saltiness enhancement.
An aqueous 0.3 mass % sodium chloride solution (control), and solutions of the invention product 201 or the reference product 202 dissolved in a 0.3 mass % sodium chloride solution to have the concentration as 2-(3-benzyloxypropyl)pyridine therein shown in the following Table 23 were prepared. Well-trained 5 panelists tasted the solutions for organoleptic evaluation of umami impartment and saltiness enhancement.

Experiment [8] relates to panelists. Nature of the experiment: Confirmation of umami enhancing effect: comparison with edible salt and 0.05 mass % MSG solution. As to conditions: 10 ppb with 0.3 mass % edible salt in water; 5 panelists; Example 110. The text has this:
Well-trained 5 panelists tasted an aqueous solution of 0.3 mass % edible salt and 0.05 mass % sodium glutamate (MSG), and an aqueous solution of 0.3 mass edible salt and 10 ppb of 2-(3-benzyloxypropyl)pyridine (invention product 101), for organoleptic evaluation of umami.
Well-trained 5 panelists tasted (1) an aqueous solution of 0.3 mass % edible salt and 0.05 mass % sodium glutamate (MSG), and (2) and an aqueous solution of 0.3 mass % edible salt and […], as 2-(3-benzyloxypropyl)pyridine therein, of the invention product 201, for organoleptic evaluation in point of umami.

Setting [9] is: aqueous solution, Reference Example 201.
Setting [10] is: in 0.3 mass % sodium chloride solution, Example 108.

For the molecule `c1ccc(COCCCc2ccccn2)cc1` [invention product 101, 2-(3-benzyloxypropyl)pyridine], the Flavor Evaluation entry in the experiment with panelists [1] was “somewhat herbal, green and nutty flavor of natural impression”. Further, in the experiment with panelists [2], the “umami and saltiness compared with the non-added solution” value was “stronger umami and saltiness”. Besides, the “umami compared with the non-added solution” value in the experiment on panelists [3] is reported as “stronger umami”. Further, the “sweetness compared with the non-added solution” value in the experiment with panelists [4] is “stronger sweetness”. Also, the “umami, saltiness and sweetness compared with non-added soup broth” value in the experiment with panelists [5] was “stronger umami, saltiness and sweetness”. For the same molecule, the “Organoleptic Evaluation Taste” value in the experiment on panelists [6] (0.1 ppm dissolved in water, Example 107) is recorded as “Weakly umami”; in the experiment with panelists [6] (0.1 ppm, diluted with ethanol, then with water, Reference Example 201), “Weakly umami”; in the experiment on panelists [6] (10 ppb dissolved in water, Example 107), “Slightly umami”; in the experiment with panelists [6] (10 ppb, diluted with ethanol, then with water, Reference Example 201) it was “Slightly umami”; in the experiment with panelists [6] (20 ppm dissolved in water, Example 107), “Strongly umami”; in the experiment on panelists [6] (20 ppm, diluted with ethanol, then with water, Reference Example 201), “Strongly umami”. In addition, the “Organoleptic Evaluation Flavor” value was “Nothing at all” with panelists [6] (2 ppb dissolved in water, Example 107) and “Nothing at all” in the experiment on panelists [6] (2 ppb, diluted with ethanol, then with water, Reference Example 201). Moreover, the “concentration to provide the same umami intensity relative to that of 2-(2-benzyloxyethyl)pyridine” value in the experiment with panelists [6] (setting [9]) is on record as “about 1/10”; with panelists [6] (in water, Example 107), “about 1/10”. Moreover, the “umami imparting effect relative to 2-(2-benzyloxyethyl)pyridine” value in the experiment on panelists [6] (setting [9]) is on record as about 10 times. In addition, the “Organoleptic Evaluation (umami impartment and saltiness enhancement)” value in the experiment with panelists [7] (1 ppb in 0.3 mass % sodium chloride solution, average of 5 panelists, Example 108) is “Slightly umami as compared with control”. In addition, the “concentration providing umami in 0.3 mass % sodium chloride solution relative to that of the solution in water” value in the experiment on panelists [7] (Example 108) and in the experiment on panelists [7] (Example 203) was “about 1/10” throughout. Also, the “concentration to realize the same degree of umami intensity relative to that of 2-(2-benzyloxyethyl)pyridine” value in the experiment with panelists [7] (setting [10]) is listed as “about 1/10”. For the same molecule, the “umami imparting effect relative to 2-(2-benzyloxyethyl)pyridine (comparative product 1)” value in the experiment with panelists [7] (setting [10]) was “about 10 times”. Also, in the experiment with panelists [8], the “umami compared with aqueous 0.3 mass % edible salt and 0.05 mass % sodium glutamate (MSG)” value is recorded as “umami of almost the same level”.
